The results in this text go back to patent US20250171423A1, “PHARMACEUTICAL COMPOUNDS FOR THE TREATMENT OF COMPLEMENT MEDIATED DISORDERS” (Achillion Pharmaceuticals, Inc., priority 2020, published 2025).

The target of the assay is T1, Human complement C1s enzyme (Homo sapiens, UniProt P09871).
T1 construct: purified from human serum, Complement Technology, Inc; purchased Complement Technology, Inc; host or cells: human serum
T1 sequence (P09871 438-688 limits assumed): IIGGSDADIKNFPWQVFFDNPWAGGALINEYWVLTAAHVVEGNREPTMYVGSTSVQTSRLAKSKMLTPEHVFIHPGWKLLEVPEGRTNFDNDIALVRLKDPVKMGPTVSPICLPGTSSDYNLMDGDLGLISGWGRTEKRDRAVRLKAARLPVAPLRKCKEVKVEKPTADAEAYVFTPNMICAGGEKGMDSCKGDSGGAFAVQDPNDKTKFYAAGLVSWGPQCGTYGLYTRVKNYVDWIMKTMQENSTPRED
T1 sequence (P09871 16-437 partner limits assumed): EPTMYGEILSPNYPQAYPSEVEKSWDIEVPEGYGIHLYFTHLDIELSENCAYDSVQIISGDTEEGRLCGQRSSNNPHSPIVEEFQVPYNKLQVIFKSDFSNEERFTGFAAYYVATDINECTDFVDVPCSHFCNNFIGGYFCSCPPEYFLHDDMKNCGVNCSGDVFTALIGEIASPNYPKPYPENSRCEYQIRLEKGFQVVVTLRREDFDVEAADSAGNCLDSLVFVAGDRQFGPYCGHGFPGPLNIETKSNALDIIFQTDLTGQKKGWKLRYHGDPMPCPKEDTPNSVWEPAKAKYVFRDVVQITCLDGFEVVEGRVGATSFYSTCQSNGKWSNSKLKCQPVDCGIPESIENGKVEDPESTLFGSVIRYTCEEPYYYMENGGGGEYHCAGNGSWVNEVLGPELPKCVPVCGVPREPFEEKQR
Kind of assay: Human C1s Enzyme Assay. In kind it is biochemical. As to conditions: human C1s 1.16 nM, 5 min preincubation, substrate Z-L-Lys-SBzl 100 μM, A405; read-out: C1s Protease Activity. Summed up: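 C1s purified from human serum (1.16 nM final) was preincubated with compound for 5 min at room temperature in 50 mM Tris, 1 M NaCl, pH 7.5. Z-L-Lys-SBzl and DTNB were then added at 100 μM each, and A405 was followed for 30 min. IC50 came from nonlinear regression of reaction rates.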
Regarding `C[C@@H](NC(=O)[C@@H]1C[C@](F)(CF)CN1C(=O)CNC(=O)c1ccc(Oc2ccccc2)cc1)c1cc(C(=N)N)cs1` [Compound 187, (2S,4R)-N-((R)-1-(4-carbamimidoylthiophen-2-yl)ethyl)-4-fluoro-4-(fluoromethyl)-1-((4-phenoxybenzoyl)glycyl)pyrrolidine-2-carboxamide], the IC50 was below 100 nM.
In the case of `N=C(N)c1csc(CNC(=O)[C@@H]2C[C@H](C(F)(F)F)CN2C(=O)CNC(=O)CCCOc2ccccc2)c1` [Compound 59, (2S,4S)-N-((4-carbamimidoylthiophen-2-yl)methyl)-1-((4-phenoxybutanoyl)glycyl)-4-(trifluoromethyl)pyrrolidine-2-carboxamide] it was below 100 nM.
In the case of `C[C@@]12C[C@@H]1N(C(=O)CNC1(c3ccc(Oc4ccccc4)cc3)COC1)[C@H](C(=O)NCc1cc(C(=N)N)cs1)C2` [Compound 249, (1S,3S,5S)-N-[(4-carbamimidoylthiophen-2-yl)methyl]-5-methyl-2-(2-{[3-(4-phenoxyphenyl)oxetan-3-yl]amino}acetyl)-2-azabicyclo[3.1.0]hexane-3-carboxamide] it was below 100 nM; in that of `COc1cccc(CNC(=O)[C@@H]2C[C@]3(C)C[C@@H]3N2C(=O)CNC(=O)c2ccc(Oc3ccccc3)cc2)c1` [Compound 42, (1S,3S,5S)-N-(3-methoxybenzyl)-5-methyl-2-((4-phenoxybenzoyl)-glycyl)-2-azabicyclo[3.1.0]hexane-3-carboxamide], above 1000 nM; in that of `C[C@@]12C[C@@H]1N(C(=O)CNC(=O)c1ccc(Oc3ccccc3)cc1)[C@H](C(=O)OCc1cc(C(=N)N)cs1)C2` [Compound 89, (1S,3S,5S)-(4-carbamimidoylthiophen-2-yl)methyl 5-methyl-2-((4-phenoxybenzoyl)glycyl)-2-azabicyclo[3.1.0]hexane-3-carboxylate], below 100 nM.
In the case of `C[C@@]12C[C@@H]1N(C(=O)CNC(=O)c1ccc(Oc3ccc(P(C)(=O)O)cc3)cc1)[C@H](C(=O)NCc1cc(C(=N)N)cs1)C2` [Compound 53, (4-(4-((2-((1S,3S,5S)-3-(((4-carbamimidoylthiophen-2-yl)methyl)carbamoyl)-5-methyl-2-azabicyclo[3.1.0]hexan-2-yl)-2-oxoethyl)carbamoyl)phenoxy)phenyl)-(methyl)phosphinic acid] it was 100 to 1000 nM; in that of `N=C(N)c1csc([C@H](NC(=O)[C@@H]2C[C@@H](OC(F)F)CN2C(=O)CNC(=O)c2ccc(Oc3ccccc3)cc2)C(N)=O)c1` (single isomer, unassigned) [Compound 215], above 1000 nM; in that of `C[C@@H](NC(=O)[C@@H]1C[C@@H](Oc2ccc(F)cc2)CN1C(=O)CNC(=O)CCCOc1ccccc1)c1cc(C(=N)N)cs1` [Compound 119, (2S,4R)-N-((R)-1-(4-carbamimidoylthiophen-2-yl)ethyl)-4-(4-fluorophenoxy)-1-((4-phenoxybutanoyl)glycyl)pyrrolidine-2-carboxamide], below 100 nM.
As for `N=C(N)c1csc(CNC(=O)[C@@H]2C[C@]3(CN4CCOCC4)C[C@@H]3N2C(=O)CNC(=O)CCCOc2ccccc2)c1` [Compound 135, (1S,3S,5S)-N-((4-carbamimidoylthiophen-2-yl)methyl)-5-(morpholinomethyl)-2-((4-phenoxybutanoyl)glycyl)-2-azabicyclo[3.1.0]hexane-3-carboxamide], the IC50 is below 100 nM.
Under `C[C@@H](NC(=O)[C@@H]1C[C@](F)(CF)CN1C(=O)CNC(=O)c1ccc(C(=O)c2ccccc2)cc1)c1cc(C(=N)N)cs1` [Compound 202, (2S,4R)-1-((4-benzoylbenzoyl)glycyl)-N-((R)-1-(4-carbamimidoylthiophen-2-yl)ethyl)-4-fluoro-4-(fluoromethyl)pyrrolidine-2-carboxamide] stands below 100 nM; under `N=C(N)c1csc(CNC(=O)CNC(=O)CNC(=O)c2ccc(Oc3ccccc3)cc2)c1` [Compound 77, N-(2-((2-(((4-carbamimidoylthiophen-2-yl)methyl)amino)-2-oxoethyl)amino)-2-oxoethyl)-4-phenoxybenzamide], 100 to 1000 nM; under `C[C@@]12C[C@@H]1N(C(=O)CNC(=O)c1ccc(Oc3ccc(C(F)(F)F)cn3)cc1)[C@H](C(=O)NCc1cc(C(=N)N)cs1)C2` [Compound 154, (1S,3S,5S)-N-((4-carbamimidoylthiophen-2-yl)methyl)-5-methyl-2-((4-((5-(trifluoromethyl)pyridin-2-yl)oxy)benzoyl)glycyl)-2-azabicyclo[3.1.0]hexane-3-carboxamide], below 100 nM.
Under `C[C@@H](NC(=O)[C@@H]1C[C@]2(C)C[C@@H]2N1C(=O)CNC(=O)CCCCc1ccccc1)c1cc(C(=N)N)cs1` [Compound 130, (1S,3S,5S)-N-((R)-1-(4-carbamimidoylthiophen-2-yl)ethyl)-5-methyl-2-((5-phenyl-pentanoyl)glycyl)-2-azabicyclo[3.1.0]hexane-3-carboxamide] stands below 100 nM; under `Cc1ccccc1[C@@H]1C[C@@H](C(=O)NCc2cc(C(=N)N)cs2)N(C(=O)CNC(=O)CCCOc2ccccc2)C1` [Compound 155, (2S,4S)-N-((4-carbamimidoylthiophen-2-yl)methyl)-1-((4-phenoxybutanoyl)glycyl)-4-(o-tolyl)pyrrolidine-2-carboxamide], below 100 nM.
Under `N=C(N)c1csc(CNC(=O)[C@@H]2C=CCN2C(=O)CNC(=O)CCCOc2ccc(S(F)(F)(F)(F)F)cc2)c1` [Compound 95] stands 100 to 1000 nM; under `CC(C)C[C@@H](NC(=O)[C@@H]1CC2(CN1C(=O)CNC(=O)CCCOc1ccccc1)OCCO2)c1cc(C(=N)N)cs1` [Compound 173, (S)-N-((R)-1-(4-carbamimidoylthiophen-2-yl)-3-methylbutyl)-7-((4-phenoxybutanoyl)glycyl)-1,4-dioxa-7-azaspiro[4.4]nonane-8-carboxamide], above 1000 nM; under `C[C@@]12C[C@@H]1N(C(=O)CNC(=O)c1cc3cc(Oc4ccccc4)ccc3o1)[C@H](C(=O)NCc1cc(C(=N)N)cs1)C2` [Compound 132, (1S,3S,5S)-N-((4-carbamimidoylthiophen-2-yl)methyl)-5-methyl-2-((5-phenoxybenzofuran-2-carbonyl)glycyl)-2-azabicyclo[3.1.0]hexane-3-carboxamide], below 100 nM.
On to `C[C@@H](NC(=O)[C@@H]1CC2(CCCC2)CN1C(=O)CNC(=O)CCCOc1ccccc1)c1cc(C(=N)N)cs1` [Compound 114, (S)-N-((R)-1-(4-carbamimidoylthiophen-2-yl)ethyl)-2-((4-phenoxybutanoyl)glycyl)-2-azaspiro[4.4]nonane-3-carboxamide], for which the IC50 is below 100 nM.
In the case of `N=C(N)c1csc([C@H](NC(=O)[C@@H]2C[C@@H](OC(F)F)CN2C(=O)CNC(=O)c2ccc(Oc3ccccc3)cc2)C2CCCC2)c1` [Compound 193, (2S,4R)-N-((R)-(4-carbamimidoylthiophen-2-yl)(cyclopentyl)methyl)-4-(difluoromethoxy)-1-((4-phenoxybenzoyl)glycyl)pyrrolidine-2-carboxamide] it was above 1000 nM; in that of `COCCCC(=O)NCC(=O)N1[C@H]2C[C@@]2(C)C[C@H]1C(=O)NCc1cc(C(=N)N)cs1` [Compound 75, (1S,3S,5S)-N-((4-carbamimidoylthiophen-2-yl)methyl)-2-((4-methoxybutanoyl)-glycyl)-5-methyl-2-azabicyclo[3.1.0]hexane-3-carboxamide], 100 to 1000 nM; in that of `Cc1cccc([C@@H]2C[C@@H](C(=O)NCc3cc(C(=N)N)cs3)N(C(=O)CNC(=O)CCCOc3ccccc3)C2)c1` [Compound 171, (2S,4S)-N-((4-carbamimidoylthiophen-2-yl)methyl)-1-((4-phenoxybutanoyl)glycyl)-4-(m-tolyl)pyrrolidine-2-carboxamide], below 100 nM.
Under `C[C@@]12C[C@@H]1N(C(=O)CNC(=O)CCCCc1ccccc1)[C@H](C(=O)NCc1cc(C(=N)N)cs1)C2` [Compound 81, (1S,3S,5S)-N-((4-carbamimidoylthiophen-2-yl)methyl)-5-methyl-2-((5-phenyl-pentanoyl)glycyl)-2-azabicyclo[3.1.0]hexane-3-carboxamide] stands below 100 nM; under `C[C@@]12C[C@@H]1N(C(=O)CNC(=O)c1ccc(Oc3ccccc3)cc1)[C@H](C(=O)NCc1cc3ccnc(N)c3s1)C2` [Compound 256, (1S,3S,5S)-N-((7-aminothieno[2,3-c]pyridin-2-yl)methyl)-5-methyl-2-((4-phenoxybenzoyl)glycyl)-2-azabicyclo[3.1.0]hexane-3-carboxamide], above 1000 nM; under `C[C@@]12C[C@@H]1N(C(=O)CNC(=O)c1ccc(Oc3ccccc3)cc1)[C@H](C(=O)NCc1cc(/C(N)=N/NS(=O)(=O)c3ccccc3)cs1)C2` [Compound 139, (1S,3S,5S)-N-((4-(imino(2-(phenylsulfonyl)hydrazineyl)methyl)thiophen-2-yl)methyl)-5-methyl-2-((4-phenoxybenzoyl)glycyl)-2-azabicyclo[3.1.0]hexane-3-carboxamide], above 1000 nM.
